Reference: ChEMBL document CHEMBL4130467, “Isolation and Structural Characterization of Echinocystic Acid Triterpenoid Saponins from the Australian Medicinal and Food Plant Acacia ligulata” (J Nat Prod, 2017)

Experiments:
SK-MEL-28 = assay: Cytotoxicity against human SK-MEL-28 cells assessed as reduction in cell viability after 48 hrs by sulforhodamine B assay; format: functional, cell-based; conditions: SK-MEL-28, 48 h
HFF = assay: Cytotoxicity against HFF assessed as reduction in cell viability after 48 hrs by sulforhodamine B assay; format: cell-based; conditions: Homo sapiens

SMILES	IC50 (SK-MEL-28) [µM]	IC50 (HFF) [µM]
CC(=O)N[C@H]1[C@H](O[C@H]2CC[C@]3(C)[C@H]4CC=C5[C@@H]6CC(C)(C)CC[C@]6(C(=O)O[C@@H]6OC[C@H](O)[C@H](O)[C@H]6O[C@@H]6O[C@@H](C)[C@H](O[C@@H]7O[C@@H](COC(C)=O)[C@H](O)[C@H]7O)[C@@H](O[C@@H]7OC[C@@H](O)[C@H](O)[C@H]7O)[C@H]6O)[C@H](O)C[C@@]5(C)[C@]4(C)CC[C@H]3C2(C)C)O[C@H](CO)[C@@H](O[C@@H]2O[C@H](CO)[C@@H](O)[C@H](O)[C@H]2O)[C@@H]1O	25	13.4
CC(=O)N[C@H]1[C@H](O[C@H]2CC[C@]3(C)[C@H]4CC=C5[C@@H]6CC(C)(C)CC[C@]6(C(=O)O[C@@H]6OC[C@H](O)[C@H](O)[C@H]6O[C@@H]6O[C@@H](C)[C@H](O[C@@H]7O[C@@H](CO)[C@H](O)[C@H]7O)[C@@H](O[C@@H]7OC[C@@H](O)[C@H](O)[C@H]7O)[C@H]6O)[C@H](O)C[C@@]5(C)[C@]4(C)CC[C@H]3C2(C)C)O[C@H](CO)[C@@H](O[C@@H]2O[C@H](CO)[C@@H](O)[C@H](O)[C@H]2O)[C@@H]1O	15	14.2
